Measurements as given in paper PMC12616683, “In Vivo Atlas of Neuroprotective Cyclic Dipeptides Derived from Food Gelatin Using Peptidomics and Feature-Based Molecular Networking” (Journal of Agricultural and Food Chemistry, 2025).
Square brackets hold non-standard residues; d marks the D form. Peptide text beside a SMILES is read from it. pGlu = O=C1CC[CH](C(=O)O)N1

Assay: FBMN analysis of short peptides in small intestine contents and serum after oral DHG
Conditions: for Peptide signal (feature intensity) in the small intestine, 30 min / Peptide signal (feature intensity) in the small intestine, 60 min / Peptide signal (feature intensity) in the small intestine, 120 min / Peptide signal (feature intensity) in the small intestine, 240 min: small intestine contents, C57 mice, FBMN feature intensity, peptides smaller than 690 Da; for Peptide signal (feature intensity) in the small intestine, 30 min: 30 min after oral DHG; for Peptide signal (feature intensity) in the small intestine, 60 min: 60 min after oral DHG; for Peptide signal (feature intensity) in the small intestine, 120 min: 120 min after oral DHG; for Peptide signal (feature intensity) in the small intestine, 240 min: 240 min after oral DHG; for time detected in serum (FBMN): time points 0.5-4 h after oral DHG

SMILES	Peptide signal (feature intensity) in the small intestine, 30 min	Peptide signal (feature intensity) in the small intestine, 60 min	Peptide signal (feature intensity) in the small intestine, 120 min	Peptide signal (feature intensity) in the small intestine, 240 min	time detected in serum (FBMN)
CC[C@H](C)[C@H](NC(=O)CN)C(=O)O [Gly-Ile] (H-Gly-Ile-OH)	1.17E+07	1.01E+07	0.00E+00	0.00E+00	–
CC(C)C[C@H](NC(=O)[C@@H](N)CC(=O)O)C(=O)O [Asp-Leu] (H-Asp-Leu-OH)	5.68E+06	2.91E+06	7.39E+06	1.44E+07	–
O=C1CCC(C(=O)NC(Cc2ccccc2)C(=O)O)N1 (stereo not shown) [PyroGlu-Phe]	0.00E+00	1.13E+07	0.00E+00	5.69E+06	only detected in the first hour
CCC(C)C(N)C(=O)NC(C(=O)O)C(C)O (stereo not drawn) [Ile-Thr] (H-Ile-Thr-OH; configuration not given here)	6.56E+06	7.13E+06	0.00E+00	0.00E+00	–
N[C@@H](Cc1cnc[nH]1)C(=O)N[C@@H](Cc1c[nH]c2ccccc12)C(=O)O [His-Trp]	1.94E+06	0.00E+00	1.97E+06	5.05E+06	–
CC(C)C[C@H](N)C(=O)N[C@@H](CCC(=O)O)C(=O)N[C@@H](CCCCN)C(=O)O [Leu-Glu-Lys] (H-Leu-Glu-Lys-OH)	0.00E+00	4.20E+05	0.00E+00	9.49E+05	–
N[C@@H](CCC(=O)O)C(=O)N[C@@H](Cc1ccc(O)cc1)C(=O)O [Glu-Tyr] (H-Glu-Tyr-OH)	6.78E+05	4.16E+05	0.00E+00	1.73E+06	–
N[C@@H](CC(=O)O)C(=O)N[C@@H](Cc1ccccc1)C(=O)O [Asp-Phe] (H-Asp-Phe-OH)	3.76E+07	6.08E+07	1.22E+08	1.29E+08	only detected in the first hour
CC(C)CC(N)C(=O)NC(Cc1ccccc1)C(=O)O (stereo not drawn) [Leu-Phe] (H-Leu-Phe-OH; configuration not given here)	6.52E+05	9.44E+05	8.51E+05	0.00E+00	–
CC[C@H](C)[C@H](N)C(=O)N[C@@H](Cc1ccc(O)cc1)C(=O)O [Ile-Tyr] (H-Ile-Tyr-OH)	4.20E+05	8.21E+05	0.00E+00	0.00E+00	–
CCC(C)C(N)C(=O)NC(CCCCN)C(=O)O (stereo not drawn) [Ile-Lys] (H-Ile-Lys-OH; configuration not given here)	0.00E+00	0.00E+00	0.00E+00	0.00E+00	–
CC(C)C(NC(=O)C(N)Cc1ccccc1)C(=O)O (stereo not drawn) [Phe-Val] (H-Phe-Val-OH; configuration not given here)	1.12E+06	1.09E+06	0.00E+00	0.00E+00	–
CC(C)CC(N)C(=O)NC(C(=O)O)C(C)C (stereo not drawn) [Leu-Val] (H-Leu-Val-OH; configuration not given here)	4.22E+06	7.59E+06	0.00E+00	0.00E+00	–
N[C@@H](Cc1ccccc1)C(=O)N[C@@H](CCC(=O)O)C(=O)O [Phe-Glu] (H-Phe-Glu-OH)	1.31E+07	3.77E+06	0.00E+00	0.00E+00	–
CC(C)C[C@H](NC(=O)CNC(=O)[C@@H](N)CC(C)C)C(=O)O [Leu-Gly-Leu] (H-Leu-Gly-Leu-OH)	2.40E+06	6.61E+05	0.00E+00	4.40E+06	–
N[C@@H](Cc1cnc[nH]1)C(=O)N1CCC[C@H]1C(=O)O [His-Pro]	4.26E+07	5.51E+07	0.00E+00	8.49E+06	–
NC(=O)C[C@H](N)C(=O)N[C@@H](Cc1ccccc1)C(=O)O [Asn-Phe] (H-Asn-Phe-OH)	2.16E+06	2.86E+06	5.41E+06	4.96E+06	–
CSCCC(N)C(=O)NC(CC(C)C)C(=O)O (stereo not drawn) [Met-Leu] (H-Met-Leu-OH; configuration not given here)	0.00E+00	0.00E+00	4.03E+05	3.59E+05	–

Second part, the molecule after the results:

Peptide signal (feature intensity) in the small intestine, 30 min	Peptide signal (feature intensity) in the small intestine, 60 min	Peptide signal (feature intensity) in the small intestine, 120 min	Peptide signal (feature intensity) in the small intestine, 240 min	time detected in serum (FBMN)	SMILES
0.00E+00	4.45E+06	0.00E+00	8.43E+06	–	CC(C)C[C@H](NC(=O)[C@@H](N)[C@@H](C)O)C(=O)O [Thr-Leu] (H-Thr-Leu-OH)
5.29E+05	1.54E+05	0.00E+00	1.07E+06	–	CC(C)CC(NC(=O)C(NC(=O)C(N)C(C)O)C(C)C)C(=O)O (stereo not drawn) [Thr-Val-Leu] (H-Thr-Val-Leu-OH; configuration not given here)
0.00E+00	1.75E+07	0.00E+00	1.91E+07	–	O=C1CCC(C(=O)N2CCCC2C(=O)O)N1 (stereo not shown) [PyroGlu-Pro] ([pGlu]-Pro-OH; configuration not given here)
0.00E+00	0.00E+00	0.00E+00	6.50E+05	–	N[C@@H](Cc1c[nH]c2ccccc12)C(=O)NCC(=O)O [Trp-gly] (H-Trp-Gly-OH)
0.00E+00	2.55E+07	0.00E+00	1.33E+07	–	O=C1CCC(C(=O)NC(Cc2ccc(O)cc2)C(=O)O)N1 (stereo not shown) [PyroGlu-Tyr] ([pGlu]-Tyr-OH; configuration not given here)
2.94E+06	3.78E+06	0.00E+00	0.00E+00	–	CC(C)CC(NC(=O)C(N)C(C)C)C(=O)O (stereo not drawn) [Val-Leu] (H-Val-Leu-OH; configuration not given here)
8.94E+05	6.69E+05	1.60E+06	4.59E+06	–	CC(C)C[C@H](NC(=O)[C@@H](N)CO)C(=O)N[C@@H](CCCCN)C(=O)O [Ser-Leu-Lys] (H-Ser-Leu-Lys-OH)
–	–	–	–	0.5 to 4 h	CC(C)C[C@@H]1NC(=O)[C@H](Cc2ccccc2)NC1=O [cyclo(Leu-Phe)]
3.95E+05	0.00E+00	6.03E+05	4.57E+05	–	CC(C)[C@@H]1NC(=O)[C@@H]2CCCN2C1=O [cyclo(L-Val-L-Pro)]
3.30E+06	7.38E+06	0.00E+00	0.00E+00	–	CSCC[C@H](NC(=O)[C@@H](N)C(C)C)C(=O)O [Val-Met] (H-Val-Met-OH)
5.52E+06	1.24E+07	0.00E+00	0.00E+00	–	CC(C)[C@H](N)C(=O)N[C@H](C(=O)O)C(C)C [Val-Val] (H-Val-Val-OH)
